Consider ten compounds from PubChem BioAssay (NCI).

What all share (assay): inhibition of tumour cell growth, NCI panel, 48 h
Experiment [1] relates to HT29 colon.
The test system of experiment [2] is KM20L2 colon.
The test system of experiment [3] is NCI-H460 lung.
Experiment [4] deals with SN12C renal.
Experiment [5] relates to SW-620 colon.
The subject of experiment [6] is OVCAR-8 ovarian.
In experiment [7] the test system is NCI/ADR-RES ovarian.
The test system of experiment [8] is SNB-75 CNS.
Experiment [9] concerns 786-0 renal.
Experiment [10] relates to RXF 393 renal.
In experiment [11] the test system is NCI-H522 lung.
In experiment [12] the test system is OVCAR-3 ovarian.
Experiment [13] relates to SF-268 CNS.
Experiment [14] has as its system SF-295 CNS.
Experiment [15] relates to HL-60(TB) leukemia.
The test system of experiment [16] is SK-MEL-28 melanoma.
Experiment [17] concerns NCI-H23 lung.
The test system of experiment [18] is KM12 colon.
The test system of experiment [19] is HOP-92 NSCLC.
Experiment [20] concerns T-47D breast.

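These data come from cells grown in 96-well plates and exposed to compound for 48 hours at five concentrations. TGI marks complete inhibition of growth.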

`N#Cc1cc([N+](=O)[O-])ccc1NC(=O)/C(=N\NC(=O)c1ccncc1)C(c1cnc2ccc([N+](=O)[O-])cc2n1)[N+](=O)[O-]` (centres undefined): the TGI came out at 41.8 µM in experiment [1]; 25.1 µM in experiment [2]; 8.17 µM in experiment [3]; 3.71 µM in experiment [4]; 5.5 µM in experiment [5]; 9.83 µM in [6]. For the same compound, the TGI is 37 µM in experiment [7]; 3.83 µM in experiment [8]; 6.16 µM in experiment [9]; 10.8 µM in experiment [10]; 3.46 µM in experiment [11]; 4.29 µM in experiment [12]. Further, the TGI in experiment [13] was determined as 11.6 µM; in [14] it was 4 µM; in [15], 10.6 µM; in experiment [16], 4.81 µM; in experiment [17] it was 2.65 µM; in experiment [18] it was 7.53 µM. For the same compound, the figures for the TGI in experiment [19] and in experiment [20] were 22.6 µM and 18.4 µM, respectively.
Consider `O=C1C=CC2(C=C1)CCNC1=C2C(=O)c2ccccc2C1=O`, for which the TGI in experiment [1], in experiment [2], in [3], in experiment [4], in experiment [5] and in experiment [6] was more than 100 µM in each case. For the same compound, the TGI was more than 100 µM in experiment [8]; more than 100 µM in experiment [9]; more than 100 µM in [10]; more than 100 µM in [11]; 76.7 µM in experiment [12]; more than 100 µM in [13]. Further, the TGI in experiment [14], in experiment [15], in experiment [16], in [17], in experiment [18] and in experiment [19] was more than 100 µM throughout.
Turning to `O=C1C=CC(=O)c2c1ccc1c3ccccc3n(-c3ccccc3)c21`, the TGI stood at 37 µM in experiment [1]; 36.9 µM in experiment [2]; 34.6 µM in experiment [3]; 26.6 µM in [4]; 7.31 µM in [5]; 11 µM in [6]. Moreover, the TGI in experiment [8] was found to be 40.2 µM; in [9], 33 µM; in [10], 5.34 µM; in [11] it was 3.15 µM; in [12], 21.9 µM; in experiment [13], 40.9 µM. Besides, the TGI was found to be 22.2 µM in experiment [14]; 2.34 µM in [15]; 14.4 µM in [16]; 34.1 µM in [17]; 37.7 µM in experiment [18]; 7.78 µM in experiment [19]. In experiment [20], the TGI was 4.78 µM.
For `OCCCNc1ccnc2cc(Cl)ccc12`, the TGI in experiment [1], in experiment [2], in experiment [3], in experiment [4], in experiment [5] and in [6] was more than 100 µM in each case. Further, the TGI in experiment [8], in experiment [9], in experiment [10], in [11], in [12] and in [13] was more than 100 µM throughout. Further, the TGI in [14], in [15], in [16], in experiment [17], in experiment [18] and in experiment [19] was more than 100 µM each time.
For `O=C(c1nc2ccccc2[nH]c1=O)C(O)c1ccco1` (centres undefined), the TGI in experiment [1], in experiment [2], in experiment [3], in experiment [4], in experiment [5] and in [6] was more than 100 µM in each case. Also, the TGI in experiment [8], in [9], in experiment [10], in [11], in experiment [12] and in [13] was more than 100 µM throughout. For the same compound, the TGI in experiment [14], in experiment [15], in experiment [16], in experiment [17], in experiment [18] and in [19] was more than 100 µM each time.
`O=C(Nc1cccc(C(F)(F)F)c1)C(=O)C1NC(=S)NC1=O` (centres undefined): the TGI in experiment [1] is more than 100 µM; in experiment [2], more than 100 µM; in [3], more than 100 µM; in [4], more than 100 µM; in experiment [5], 36.5 µM; in experiment [6], more than 100 µM. Also, the TGI in [8], in [9], in [10], in experiment [12], in experiment [13] and in experiment [14] was more than 100 µM in each case. Moreover, the TGI in experiment [15], in [16], in [17], in [18] and in experiment [19] was more than 100 µM throughout.
As for `C=CCN1COc2c(cc3c4c(cccc24)C(=O)O3)C1`, the TGI in experiment [1] was 51.8 µM; in [2], more than 100 µM; in experiment [3], more than 100 µM; in [4], 35.5 µM; in experiment [5], 62.7 µM; in [6] it was more than 100 µM. Besides, the TGI in experiment [8] is 77.6 µM; in [9] it was 39.1 µM; in experiment [10], more than 10 µM; in experiment [11], 28.4 µM; in experiment [12] it was 72.5 µM; in experiment [13], more than 100 µM. Further, the TGI is more than 100 µM in experiment [14]; 50.3 µM in experiment [15]; 57.2 µM in experiment [16]; 47 µM in experiment [17]; more than 100 µM in [18]; 30.5 µM in experiment [19].
Turning to `CC(=O)C1Cn2c(=O)c3cc4ccccc4cc3c(=O)n2C=C1C` (centres undefined), the TGI in [2], in [3], in experiment [4], in [5], in experiment [6] and in experiment [8] was more than 100 µM in each case. Besides, the TGI in [9], in experiment [10], in experiment [11], in experiment [12], in experiment [13] and in [14] was more than 100 µM in each case. In addition, the TGI in experiment [15], in [16], in experiment [17], in experiment [18] and in experiment [19] was more than 100 µM in each case.
Take `N#CC1=C(c2ccccc2)C(=C2Nc3ccccc3N2)C2S/C(=C\c3ccccc3)C(=O)N2C1=N` (centres undefined): the TGI in experiment [1] was determined as 14.3 µM; in [2] it was 6.56 µM; in experiment [3] it was 10.2 µM; in experiment [4] it was 11.4 µM; in experiment [5], 15.8 µM; in [6], 5.19 µM. The TGI amounted to 3.77 µM in [8]; 6.09 µM in experiment [9]; 3.52 µM in [11]; 3.37 µM in [12]; 6.35 µM in [13]; 6.21 µM in experiment [14]. Also, the TGI in [15] stood at 6.53 µM; in [16] it was 10.5 µM; in experiment [17], 4.49 µM; in experiment [18], 15.1 µM; in experiment [19], 2.67 µM.
In the case of `C/C(CC(=O)Nc1cc(C)ccc1C)=N/N=C(N)N`, the TGI in [1], in experiment [2], in experiment [3], in [5], in [6] and in experiment [8] was more than 100 µM in each case. The TGI in [9], in [10], in [11], in experiment [12], in experiment [13] and in [14] was more than 100 µM throughout. For the same compound, the TGI in [15], in experiment [16], in [17], in [18] and in [19] was more than 100 µM each time.
